Patent publication US20220193301A1, “CELL SUSPENSION AND USE THEREOF” (AVITA Medical, Inc., priority 2012, published 2022)

System: Primary Epidermal Keratinocytes (PEK), Normal, Human, Adult
Assay: In vitro Scratch Assay of keratinocytes (with and without mitomycin c)
Type: cell-based
Conditions: media/control group, no hydrogel
Description: 1. Maintain stock cultures of Primary Epidermal Keratinocytes (PEK), Normal, Human, Adult cells in Dermal Cell Basal Medium supplemented with Keratinocyte Growth Kit and Gentamicin-Amphotericin B Solution (Complete Medium). Subculture the stock cultures of cells to 2.5×10^4 cells/ml (estimate) and re-feed with complete medium every 2 days or when a density of near confluence is reached. 2. To each well of a 24 well plate add appropriate test substances. Row A, Columns 1-3: blank, no cells, medium only. Row B, Columns 1-3: baseline, cells only, no coating. Row C-D, Columns 1-3 and Rows A-D, Columns 4-6: test substances at determined previously, in a serial dilution series as necessary. 3. Harvest cells and wash the PEK cells in Media by centrifugation at 150×g for 3 to5 minutes. 4. Determine cell number and viability (by trypan blue exclusion), and suspend the cells to a final concentration of 5×10^4 cells/ml in Media. 5. Dispense 600 μl of the cell suspension (30,000 cells) into all wells of the plate prepared in Step 2. 6. […]
In vitro Scratch Assay was performed according to the above protocol. […] In vitro re-epithelialization was documented by photography, and the amount of migration was manually quantified by computer-assisted image analysis. The data was expressed as a percentage of the area of the scratch filled by keratinocytes (FIG. 7). […]

Compound: CO[C@@]12[C@H](COC(N)=O)C3=C(C(=O)C(C)=C(N)C3=O)N1C[C@@H]1N[C@@H]12 [MMC, mitomycin c]
- healing of the scratch, MMC+ cells compared to MMC− cells: delayed healing
